Measurements reported in PMC12006171, “Marsupial cathelicidins: characterization, antimicrobial activity and evolution in this unique mammalian lineage” (Frontiers in Immunology, 2025).
Converted amounts (≈) assume the structure as drawn. Like-named read-outs stand apart in the source and are kept apart here. Where a SMILES comes first, the peptide text is derived from it.

How the values were obtained:
[1] = tested on: three fungi (Candida krusei, Candida parapsilosis, Candida albicans); design: method as in 4 sources, ref Peel et al 2016 ||| ref Peel et al 2021 ||| ref Wang et al 2011 ||| ref Peel et al 2017; conditions: cited from earlier work
[2] = tested on: six bacteria (S. aureus, E. coli, P. aeruginosa; ATCC and clinical isolate); design: method as in 4 sources, ref Peel et al 2016 ||| ref Peel et al 2021 ||| ref Wang et al 2011 ||| ref Peel et al 2017; conditions: cited from earlier work
[3] = tested on: Escherichia coli clinical isolate - animal; experiment: microbe, parasite or virus in culture; assay type: cell-based
Method: (§1) Antimicrobial testing of 78 cathelicidin MPs was performed in two phases as outlined in Figure 1 . In phase I, 40 peptides (27 extant and 13 ancestral) were selected for testing based on rank (outlined above) and similarity to published marsupial cathelicidins with known antimicrobial activity ([33], [41]–[43]). These peptides were tested against nine bacteria (Staphylococcus aureus ATCC 29213 and clinical isolate, Escherichia coli ATCC 25922 and clinical isolate, Pseudomonas aeruginosa ATCC 27853 and clinical isolate, Streptococcus agalactiae ATCC 12386 and clinical isolate, Streptococcus pneumoniae ATCC 49619) and three fungi (Candida krusei ATCC 6258, Candida parapsilosis ATCC 22019, and Candida albicans clinical isolate). Details regarding these strains are available in Supplementary Table 4 . The antimicrobial activity of cathelicidins was determined as the minimum inhibitory concentration (MIC), which was the lowest concentration of cathelicidin that prevented visible bacterial or fungal growth, relative to the negative control. […] Minimum bactericidal concentration (MBC) and/or minimum fungicidal concentration (MFC) was conducted to determine microbicidal versus static action. Activity against S. aureus ATCC, E. coli ATCC, and Pseudomonas aeruginosa ATCC 27853 was examined in the presence of divalent cations to determine the impact of inhibitors.
(§2) In phase II, the remaining 38 peptides (37 extant and one ancestral) were tested against six bacteria (S. aureus ATCC and clinical isolate, E. coli ATCC and clinical isolate, and P. aeruginosa ATCC and clinical isolate). […] No further testing on phase II peptides was performed. Detailed methods for all assays are provided in subsequent sections.
(§3) Antimicrobial activity was determined using a broth microdilution susceptibility assay in 96 well polypropylene plates according to Clinical Laboratory Standards Institute guidelines M07-A and M26A as described previously ([33], [42], [43]). The bacterial and fungal isolates from humans and animals used in this study are outlined in Supplementary Table 4 . Only yeasts were included in the panel of fungi as they have been used in the susceptibility testing of eutherian ([3], [81]–[83]) and other marsupial cathelicidins previously ([33], [42], [43]). Cathelicidin mature peptides were solubilized in DMSO and serially diluted in duplicate from 128-0.25μg/mL in a final volume of 100µL. For bacteria, cathelicidins were diluted in Mueller Hinton Broth (MHB) with or without 10% lysed horse blood, and with (MH II B) or without (MHB) calcium and magnesium cations. For fungi, cathelicidins were diluted in Roswell Park Memorial Institute medium (RPMI)-1640 MOPS. Ampicillin or tetracycline were included as a positive control for Gram-positive and -negative bacteria respectively, while amphotericin B was used for fungi. A media-only negative control and growth control (no cathelicidin) were also included on each plate. Bacteria were sub-cultured on Muller Hinton agar (MHA) or sheep blood agar (BA), and fungi on Sabouraud dextrose agar (SAB), 20–24 hours prior to the test. Colonies were suspended in saline, the concentration adjusted to a 0.5 McFarland standard, and then diluted in media to a concentration of 1.0 x 10^6 cells/mL. Then, 100μL was added to each well of the cathelicidin dilution plate, giving a final inoculum density of 5 x 10^5 CFU/mL and cathelicidin concentration of 64-0.125μg/mL. Colony counts were performed on MHA/BA/SAB to confirm inoculum density. All plates were incubated at 35°C for 20–24 hours, depending on the strain.
(§4) Colonies were counted and compared to the colony count of the starting inoculum.

[4] = tested on: Staphylococcus aureus ATCC 29213; experiment: microbe, parasite or virus in culture; assay type: cell-based; conditions: read-out: MIC S. aureus ATCC
Method: as §1, §2, §3, §4

[5] = tested on: Escherichia coli ATCC 25922; experiment: microbe, parasite or virus in culture; assay type: cell-based
Method: as §1, §2, §3, §4

[6] = tested on: Pseudomonas aeruginosa ATCC 27853; experiment: microbe, parasite or virus in culture; assay type: cell-based; conditions: read-out: MIC P. aeruginosa ATCC
Method: as §1, §2, §3, §4

[7] = tested on: Pseudomonas aeruginosa clinical isolate - animal; experiment: microbe, parasite or virus in culture; assay type: cell-based; conditions: read-out: MIC P. aeruginosa
Method: as §1, §2, §3, §4

[8] = tested on: Staphylococcus aureus clinical isolate - animal; experiment: microbe, parasite or virus in culture; assay type: cell-based; conditions: read-out: MIC S. aureus
Method: as §1, §2, §3, §4

[9] = mature peptide, Y/N summary from earlier study, ref Peel et al 2016
[10] = mature peptide (MP), Y/N summary, ref Peel et al 2017
[11] = mature peptide, Y/N summary from earlier study, ref Peel et al 2017
[12] = clinical isolate, µM equivalent of Table 3

Question: Which results are given for “KREDFLDQIIRDFRNFIYQKYRRLRDEFRKLRDILSG [SahaCath4]”?
Answer: Antifungal (MIC <64ug/mL) [1, 9]: N (Peel et al 2016) (Antifungal (MIC <64ug/mL)); Antibacterial (MIC <64ug/mL) [2, 9]: N (Peel et al 2016) (Antibacterial (MIC <64ug/mL))

Question: Which “Antifungal (MIC <64ug/mL)” value [1, 10] does the source give for “TLTQAHCPYFLRKKPEGEMATGGRPQETPKLLGAL [ModoCath10]” here?
Answer: Its value is “N (Peel et al 2017) (Antifungal (MIC <64ug/mL))”.

Question: And the “Antibacterial (MIC <64ug/mL)” value [2, 10]?
Answer: The value was “N (Peel et al 2017) (Antibacterial (MIC <64ug/mL))”.

Question: With “PGRKKGSKRHKPGSYSVIALGKPGVKKSPYMEAL [MaeuCath8]” as the compound, how does the “Antifungal (MIC <64ug/mL)” value [1, 11] read?
Answer: The value was “N (Peel et al 2017) (Antifungal (MIC <64ug/mL))”.

Question: What about the “Antibacterial (MIC <64ug/mL)” value [2, 11] of the same compound?
Answer: Its value is “N (Peel et al 2017) (Antibacterial (MIC <64ug/mL))”.

Question: What does the source list for “IKIFIPKGFYKGIQLVNEIIKENNERQKQKP [ModoCath12]”?
Answer: Antifungal (MIC <64ug/mL) [1, 10]: N (Peel et al 2017) (Antifungal (MIC <64ug/mL)); Antibacterial (MIC <64ug/mL) [2, 10]: N (Peel et al 2017) (Antibacterial (MIC <64ug/mL))

Question: Which results are given for CC[C@H](C)[C@H](NC(=O)[C@H](CO)NC(=O)[C@H](CCCNC(=N)N)NC(=O)CNC(=O)[C@@H]1CCCN1C(=O)[C@H](CCCNC(=N)N)NC(=O)[C@@H]1CCCN1C(=O)[C@H](CCCNC(=N)N)NC(=O)[C@@H]1CCCN1C(=O)[C@H](CCCNC(=N)N)NC(=O)[C@@H]1CCCN1C(=O)[C@H](Cc1ccccc1)NC(=O)[C@H](CC(N)=O)NC(=O)[C@@H]1CCCN1C(=O)[C@H](CCCNC(=N)N)NC(=O)[C@@H]1CCCN1C(=O)[C@H](Cc1ccccc1)NC(=O)[C@H](CCCNC(=N)N)NC(=O)[C@@H]1CCCN1C(=O)[C@H](CCCNC(=N)N)NC(=O)[C@@H]1CCCN1C(=O)[C@H](CC(C)C)NC(=O)[C@H](Cc1ccc(O)cc1)NC(=O)[C@@H]1CCCN1C(=O)[C@H](CCCNC(=N)N)NC(=O)[C@H](CCCNC(=N)N)NC(=O)[C@@H](NC(=O)[C@H](CCCNC(=N)N)NC(=O)[C@H](CCCNC(=N)N)NC(=O)[C@H](C)NC(=O)[C@H](C)NC(=O)[C@H](CC(C)C)NC(=O)[C@H](CC(C)C)NC(=O)CN)[C@@H](C)CC)C(=O)O [SmcrCath12] (H-GLLAARRIRRPYLPRPRFPRPNFPRPRPRPGRSI-OH)?
Answer: MBC E. coli ([3]; clinical isolate, value in brackets, µM equivalent of Table 3): 3.9 µM; MIC E. coli [3, 12]: 3.9 µM; MIC ([4]; µM equivalent of Table 3): >15.6 µM; MBC E. coli ATCC ([5]; value in brackets, µM equivalent of Table 3): 1.9 µM; MIC E. coli ATCC ([5]; µM equivalent of Table 3): 1.9 µM; MIC ([6]; µM equivalent of Table 3): >15.6 µM; MIC [7, 12]: >15.6 µM; MIC [8, 12]: >15.6 µM

Question: Which results are given for CC[C@H](C)[C@H](NC(=O)[C@H](CCCNC(=N)N)NC(=O)[C@H](CCCNC(=N)N)NC(=O)[C@H](C)N)C(=O)N[C@@H](CCCNC(=N)N)C(=O)N[C@@H](CCCNC(=N)N)C(=O)N1CCC[C@H]1C(=O)N[C@@H](Cc1ccc(O)cc1)C(=O)N[C@@H](CC(C)C)C(=O)N1CCC[C@H]1C(=O)N[C@@H](CCCNC(=N)N)C(=O)N1CCC[C@H]1C(=O)N[C@@H](CCCNC(=N)N)C(=O)N1CCC[C@H]1C(=O)N[C@@H](CCCNC(=N)N)C(=O)N1CCC[C@H]1C(=O)N[C@@H](CC(N)=O)C(=O)N[C@@H](Cc1ccccc1)C(=O)N1CCC[C@H]1C(=O)N1CCC[C@H]1C(=O)N1CCC[C@H]1C(=O)N[C@@H](CCCNC(=N)N)C(=O)N1CCC[C@H]1C(=O)N[C@@H](CCCNC(=N)N)C(=O)N1CCC[C@H]1C(=O)NCC(=O)N[C@@H](CCCNC(=N)N)C(=O)N[C@@H](CO)C(=O)N[C@H](C(=O)O)C(C)C [AnstCath2] (H-ARRIRRPYLPRPRPRPNFPPPRPRPGRSV-OH)?
Answer: MBC E. coli ([3]; clinical isolate - animal): 18.2 µM (≈ 64 µg/mL); MIC ([3]; clinical isolate - animal): 9.1 µM (≈ 32 µg/mL); MIC ([4]; ATCC 29213): >18.2 µM; MBC E. coli ATCC ([5]; ATCC 25922): 4.5 µM (≈ 15.8 µg/mL); MIC E. coli ATCC ([5]; ATCC 25922): 4.5 µM (≈ 15.8 µg/mL); MIC ([6]; ATCC 27853): >18.2 µM; MIC ([7]; clinical isolate - animal): >18.2 µM; MIC ([8]; clinical isolate - animal): >18.2 µM

Question: With CC[C@H](C)[C@H](NC(=O)CNC(=O)[C@H](Cc1ccccc1)NC(=O)CNC(=O)[C@@H](NC(=O)[C@@H](NC(=O)[C@H](CCCNC(=N)N)NC(=O)[C@H](CCCNC(=N)N)NC(=O)[C@H](CCCNC(=N)N)NC(=O)[C@@H](NC(=O)[C@H](CO)NC(=O)[C@H](CC(N)=O)NC(=O)[C@H](CCCCN)NC(=O)[C@H](CC(C)C)NC(=O)[C@H](CCCCN)NC(=O)[C@H](CCSC)NC(=O)CNC(=O)[C@@H](NC(=O)[C@H](CCCCN)NC(=O)[C@H](CCCCN)NC(=O)[C@@H](NC(=O)[C@@H](NC(=O)[C@H](CC(=O)O)NC(=O)[C@H](Cc1c[nH]c2ccccc12)NC(=O)[C@H](CC(C)C)NC(=O)CNC(=O)[C@H](CCCNC(=N)N)NC(=O)[C@@H](N)CCCCN)[C@@H](C)O)C(C)C)[C@@H](C)O)[C@@H](C)CC)C(C)C)[C@@H](C)O)C(=O)NCC(=O)N[C@H](C(=O)N[C@@H](C)C(=O)N[C@H](C(=O)N[C@@H](CC(C)C)C(=O)N[C@H](C(=O)N1CCC[C@H]1C(=O)N[C@@H](CCCNC(=N)N)C(=O)O)C(C)C)[C@@H](C)CC)[C@@H](C)O [LahiCath5] (H-KRGLWDTVKKTGMKLKNSIRRRVTGFGIGTAILVPR-OH) as the compound, how does the “MBC E. coli” value ([3]; clinical isolate - animal) read?
Answer: The value was 7.8 µM (≈ 31.6 µg/mL).

Question: And the MIC ([3]; clinical isolate - animal)?
Answer: The MIC was 3.9 µM (≈ 15.8 µg/mL).

Question: And the MIC ([4]; ATCC 29213)?
Answer: The MIC was over 15.7 µM.

Question: What about the MBC E. coli ATCC ([5]; ATCC 25922) of the same compound?
Answer: Its MBC E. coli ATCC is 3.9 µM (≈ 15.8 µg/mL).

Question: And the MIC E. coli ATCC ([5]; ATCC 25922)?
Answer: The MIC E. coli ATCC was 3.9 µM (≈ 15.8 µg/mL).

Question: And the MIC ([6]; ATCC 27853)?
Answer: The MIC was over 15.7 µM.

Question: And the MIC ([7]; clinical isolate - animal)?
Answer: The MIC was over 15.7 µM.

Question: And the MIC ([8]; clinical isolate - animal)?
Answer: Its MIC is over 15.7 µM.

Question: With KDILKNNNIIILPGSNEK [OranCath1] as the compound, how does the “Antibacterial (MIC <64ug/mL)” value ([2]; mature peptide (MP), Y/N summary, ref Wang et al 2011) read?
Answer: The value was “Y (Wang et al 2011) (Antibacterial (MIC <64ug/mL))”.
